System: 996289-038-R-J1-PDC spheroid viability
Assay: Anticancer human tumor 996289-038-R-J1-PDC patient-derived colon adenocarcinoma cell line growth inhibition [PI3K]
Conditions: spheroids with HUVEC and MSC; for viability, T/C: stronger effect = lower value
Method in brief: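 Combination activity was assessed by viability in multicellular tumor spheroids carrying HUVEC and MSC components. Agents were tested with PI3K inhibitors from a Cmax-based top dose (or 10 microM) downward in half-log increments.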
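Also: spheroids exposed to compounds for seven days before viability read.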
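For viability, T/C in this document: luminescence used as a proxy for viable cell amount; percent viability relative to DMSO vehicle control as 100%.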

CC1(C)CCC(CN2CCN(c3ccc(C(=O)NS(=O)(=O)c4ccc(NCC5CCOCC5)c([N+](=O)[O-])c4)c(Oc4cnc5[nH]ccc5c4)c3)CC2)=C(c2ccc(Cl)cc2)C1 + CC(Nc1ncnc2nc[nH]c12)c1cc2cccc(Cl)c2c(=O)n1-c1ccccc1
IC50 (curve of first compound, second compound 0.0316 µM): > 10 µM
IC50 (curve of first compound, second compound 0.1 µM): > 10 µM
IC50 (curve of first compound, second compound 0.316 µM): > 10 µM
IC50 (curve of first compound, second compound 1 µM): > 10 µM
IC50 (curve of first compound, second compound 3.16 µM): 9.57 µM
IC50 (curve of first compound, second compound 10 µM): > 10 µM
viability, T/C (second compound 0.0316 µM, first compound 0.0316 µM): 105%
viability, T/C (second compound 0.0316 µM, first compound 0.1 µM): 86.3%
viability, T/C (second compound 0.0316 µM, first compound 0.316 µM): 106%
viability, T/C (second compound 0.0316 µM, first compound 1 µM): 103%
viability, T/C (second compound 0.0316 µM, first compound 3.16 µM): 114%
viability, T/C (second compound 0.0316 µM, first compound 10 µM): 65%
viability, T/C (second compound 0.1 µM, first compound 0.0316 µM): 108%
viability, T/C (second compound 0.1 µM, first compound 0.1 µM): 96.9%
viability, T/C (second compound 0.1 µM, first compound 0.316 µM): 99.4%
viability, T/C (second compound 0.1 µM, first compound 1 µM): 119%
viability, T/C (second compound 0.1 µM, first compound 3.16 µM): 128%
viability, T/C (second compound 0.1 µM, first compound 10 µM): 67%
viability, T/C (second compound 0.316 µM, first compound 0.0316 µM): 111%
viability, T/C (second compound 0.316 µM, first compound 0.1 µM): 96.3%
viability, T/C (second compound 0.316 µM, first compound 0.316 µM): 104%
viability, T/C (second compound 0.316 µM, first compound 1 µM): 101%
viability, T/C (second compound 0.316 µM, first compound 3.16 µM): 112%
viability, T/C (second compound 0.316 µM, first compound 10 µM): 60.9%
viability, T/C (second compound 1 µM, first compound 0.0316 µM): 102%
viability, T/C (second compound 1 µM, first compound 0.1 µM): 88.7%
viability, T/C (second compound 1 µM, first compound 0.316 µM): 103%
viability, T/C (second compound 1 µM, first compound 1 µM): 114%
viability, T/C (second compound 1 µM, first compound 3.16 µM): 124%
viability, T/C (second compound 1 µM, first compound 10 µM): 63.1%
viability, T/C (second compound 3.16 µM, first compound 0.0316 µM): 109%
viability, T/C (second compound 3.16 µM, first compound 0.1 µM): 92.3%
viability, T/C (second compound 3.16 µM, first compound 0.316 µM): 102%
viability, T/C (second compound 3.16 µM, first compound 1 µM): 107%
viability, T/C (second compound 3.16 µM, first compound 3.16 µM): 112%
viability, T/C (second compound 3.16 µM, first compound 10 µM): 47.7%
viability, T/C (second compound 10 µM, first compound 0.0316 µM): 88.4%
viability, T/C (second compound 10 µM, first compound 0.1 µM): 88.9%
viability, T/C (second compound 10 µM, first compound 0.316 µM): 85.7%
viability, T/C (second compound 10 µM, first compound 1 µM): 102%
viability, T/C (second compound 10 µM, first compound 3.16 µM): 108%
viability, T/C (second compound 10 µM, first compound 10 µM): 54.6%

Cn1ncnc1[C@H]1c2n[nH]c(=O)c3cc(F)cc(c23)N[C@@H]1c1ccc(F)cc1
viability, T/C (compound 0.001 µM): 105% [middle of 4 runs]
viability, T/C (compound 0.00316 µM): 103% [middle of 4 runs]
viability, T/C (compound 0.01 µM): 100% [middle of 4 runs]
viability, T/C (compound 0.0316 µM): 109% [middle of 4 runs]
viability, T/C (compound 0.1 µM): 98.9% [middle of 4 runs]
IC50 (curve of compound): > 0.1 µM

— PubChem BioAssay AID1963965 (Molecular Pharmacology Branch, DTP, NCI, 2024)
